# Experimental data as given in publication PMC4811675 (Cancer cell, 2016).
# pIC50: −log10 of the molar value. Where a SMILES comes first, the peptide text is derived from it. The star is where a group is joined. Cbz = O=C(OCc1ccccc1)*
# Legend:
# [1] = system: c-Myc; experiment: c-Myc transcription, turnover and NEDD4 expression in MCF-7 cells; format: cell-based, human
# [2] = system: MDA-MB-231 cells; experiment: Cell viability assay; format: cell-based, human; details: read-out: IC50 cell viability; 72 hr
# [3] = system: MCF-10A and HME1; experiment: Cell viability assay; format: cell-based, human; details: 72 hr, compared with malignant cells
# [4] = system: MCF-7 cells; experiment: Soft agar colony formation assay; format: cell-based, human; details: 25 µM in ethanol
# [5] = system: BT-549; experiment: NCI-60 cell line screening, BT-549; format: cell-based, human; details: 10 µM TM
# [6] = system: NCI-60 panel of human cancer cell lines; experiment: NCI-60 cell line screening; format: cell-based; details: single dose of 10 µM, 24 hr
# [7] = Detection of TM in mouse serum, fat and tumor tissues by mass spectrometry; format: in vivo, mice; details: IP administration
# [8] = system: MCF-7 cells; experiment: Cell cycle distribution and β-galactosidase senescence staining in MCF-7 cells; format: cell-based, human; details: 25 µM
# [9] = system: MCF-7, MDA-MB-468 and MDA-MB-231; experiment: Cell viability assay; format: cell-based, human; details: 72 hr, up to 50 µM
# [10] = system: c-Myc; experiment: c-Myc protein level in MCF-7 cells; format: cell-based, human; details: 25 µM
# [11] = target: T1, SIRT3 (Homo sapiens, UniProt Q9NTG7); experiment: HPLC-based sirtuin inhibition assay, SIRT3; format: biochemical; details: at 200 µM
# T1 sequence (Q9NTG7 1-399): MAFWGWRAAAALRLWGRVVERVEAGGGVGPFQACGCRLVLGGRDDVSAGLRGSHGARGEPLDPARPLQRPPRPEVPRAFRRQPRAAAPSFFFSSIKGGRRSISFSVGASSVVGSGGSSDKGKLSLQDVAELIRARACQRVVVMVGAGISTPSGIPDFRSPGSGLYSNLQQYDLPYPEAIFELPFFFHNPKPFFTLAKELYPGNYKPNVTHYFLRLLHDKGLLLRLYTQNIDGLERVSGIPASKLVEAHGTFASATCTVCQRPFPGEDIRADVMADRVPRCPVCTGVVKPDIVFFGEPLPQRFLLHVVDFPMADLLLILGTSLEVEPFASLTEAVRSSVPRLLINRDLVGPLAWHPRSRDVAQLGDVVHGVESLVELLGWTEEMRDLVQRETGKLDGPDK
# [12] = system: MMTV-PyMT mammary tumors; experiment: MMTV-PyMT mammary tumor model; format: in vivo, mice
# [13] = system: c-Myc; experiment: c-Myc protein level in BT-549 cells; format: cell-based, human; details: 25 µM
# [14] = system: MDA-MB-231 human breast cancer xenograft; experiment: MDA-MB-231 xenograft model in immunocompromised mice; format: in vivo
# [15] = 30 days treatment, compared with vehicle
# [16] = 30 days treatment, relative to vehicle
structure (smiles),measurement,setting,value
"CC(C)C[C@@H](C=O)NC(=O)[C@H](CC(C)C)NC(=O)[C@H](CC(C)C)NC(=O)OCc1ccccc1 [MG132, reference compound] (Cbz-Leu-Leu-Leu-aldehyde)",effect on TM-induced down-regulation of c-Myc,"[1]; MCF-7 cells, TM 25 µM 4 hr then MG132 10 µM 2 hr",prevented the TM-induced down-regulation of c-Myc
CCCCCCCCCCCCCC(=S)NCCCCC(NC(=O)OCc1ccccc1)C(=O)Nc1ccccc1 (centres unmarked) [TM],pIC50,[2],4.47
same,sensitivity of cell viability to TM,[3],much less sensitive
same,anchorage-independent growth (soft agar colony formation),[4],significantly inhibited
same,viability,[5],~100%
same,cell lines inhibited by >50%,[6],36/56
same,NEDD4 expression,"[1]; MCF-7 and K562 cells, 25 µM TM",up-regulated by TM at the transcriptional level
same,half-life of c-Myc,"[1]; MCF-7 cells, 25 µM 4 hr then CHX",shortened
same,c-Myc mRNA level,"[1]; MCF-7 cells, 25 µM, RT-PCR",not affected
same,TM content in abdominal fat,[7],significant amount of TM accumulated in abdominal fat
same,TM content in tumors,[7],reached the tumors
same,cell cycle distribution,"[8]; 0-72 hr, flow cytometry",pronounced increase in cells arrested in G0/G1 phase
same,cellular senescence by β-galactosidase staining,[8]; 5 days,significant cellular senescence
same,inhibition of cell viability,[9],greater inhibition of cell viability
same,c-Myc protein level,[10],decreased c-Myc protein level in a time-dependent manner
same,inhibition of SIRT3,[11],did not inhibit
same,acetyl-α-tubulin level in tumors,[12]; [15],modest but statistically significant increase
same,proliferation of tumor cells by Ki-67 staining,[12]; [16],significant decrease in proliferation of tumor cells
same,mean latency to tumor onset,"[12]; daily IP 1.5 mg TM in 50 µL DMSO, control group 48 days",54 days
same,tumor-free survival,"[12]; daily IP 1.5 mg TM, compared with vehicle",significantly prolonged
same,c-Myc protein abundance,[13],did not have a significant effect
same,body weight,"[14]; 1.5 mg TM daily, 30 days",no significant weight loss
same,toxicity in mice,"[14]; 1.5 mg TM daily, 30 days",did not cause significant toxicity
same,tumor growth,"[14]; 1.5 mg TM in 50 µL DMSO daily, IT or IP, 30 days, versus vehicle",significantly inhibited tumor growth
same,acetyl-α-tubulin level in xenograft tumors,[14]; [15],moderately but statistically significantly increased
same,Ki-67+ cells in tumors,[14]; [16],significant decrease in Ki-67^+ cells
